Values quoted from earlier work as cited in patent publication US20140011766A1, “ANTIMICROBIAL COMPOSITIONS AND METHODS” (priority 2012, published 2014).

Test system: pathogens
Conditions: except for spores (specifically C. difficile spores)

## CCO [Ethanol]
  killing of pathogens: 99.99%
